Data from US20110269811A1, “INHIBITORS OF SEMICARBAZIDE-SENSITIVE AMINE OXIDASE (SSAO) AND VAP-1 MEDIATED ADHESION USEFUL FOR TREATMENT AND PREVENTION OF DISEASES” (priority 2006, published 2011).

Experiments:
[1] = biological target: T1, D5 (h) (Homo sapiens, UniProt P21918); assay: Receptor binding screen, [^3H]SCH 23390; conditions: 10 uM Concentration of Compound I-1-Z; read-out: Mean Value, percent inhibition of control specific binding: D5 (h)
T1 construct: expressed in transfected cells; host or cells: GH4 cells
T1 sequence (P21918 whole entry): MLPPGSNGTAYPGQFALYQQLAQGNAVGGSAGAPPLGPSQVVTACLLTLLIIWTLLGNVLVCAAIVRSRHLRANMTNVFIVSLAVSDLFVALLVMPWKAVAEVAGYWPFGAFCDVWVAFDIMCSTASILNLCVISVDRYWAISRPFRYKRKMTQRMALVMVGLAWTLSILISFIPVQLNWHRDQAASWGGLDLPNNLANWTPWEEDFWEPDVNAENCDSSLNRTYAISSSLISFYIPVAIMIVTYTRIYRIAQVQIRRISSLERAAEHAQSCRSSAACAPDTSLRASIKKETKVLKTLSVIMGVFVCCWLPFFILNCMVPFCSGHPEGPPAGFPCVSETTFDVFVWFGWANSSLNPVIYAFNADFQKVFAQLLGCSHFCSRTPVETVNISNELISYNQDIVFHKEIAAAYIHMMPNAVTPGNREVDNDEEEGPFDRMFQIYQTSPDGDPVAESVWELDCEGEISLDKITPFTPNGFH

[2] = tested on: α2 (non-selective); assay: Receptor binding screen, [^3H]RX 821002; set-up: species or system rat; conditions: 10 uM Concentration of Compound I-1-Z
Experimental: (§1) For Table 4 below, the specific ligand binding to the receptors is defined as the difference between the total binding and the nonspecific binding determined in the presence of an excess of unlabelled ligand. The results are expressed as a percent inhibition of control specific binding obtained in the presence of Compound I-1-Z. The IC50 values (concentration causing a half-maximal inhibition of control specific binding) and Hill coefficients (nH) were determined by non-linear regression analysis of the competition curves using Hill equation curve fitting. The inhibition constants (Ki) were calculated from the Cheng Prusoff equation (Ki=IC50/(1+(L/KD)), where L=concentration of radioligand in the assay, and KD=affinity of the radioligand for the receptor). In each experiment, the respective reference compound was tested concurrently with Compound I-1-Z in order to assess the assay suitability.

[3] = biological target: T2, A1 (h) (Homo sapiens, UniProt P30542); assay: Receptor binding screen, [^3H]DPCPX; conditions: 10 uM Concentration of Compound I-1-Z; read-out: Mean Value, percent inhibition of control specific binding: A1 (h)
T2 construct: expressed in transfected cells; host or cells: CHO cells
T2 sequence (P30542 whole entry): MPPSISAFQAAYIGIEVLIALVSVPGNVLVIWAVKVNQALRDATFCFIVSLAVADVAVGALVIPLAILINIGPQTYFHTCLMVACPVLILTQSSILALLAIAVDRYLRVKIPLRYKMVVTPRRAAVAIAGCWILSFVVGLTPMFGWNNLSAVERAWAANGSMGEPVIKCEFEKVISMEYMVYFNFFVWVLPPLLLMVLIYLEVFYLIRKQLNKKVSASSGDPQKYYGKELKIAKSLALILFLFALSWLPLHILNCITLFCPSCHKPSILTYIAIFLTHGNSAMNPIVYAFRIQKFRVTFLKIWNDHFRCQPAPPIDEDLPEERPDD

[4] = biological target: T3, 5-HT6 (h) (Homo sapiens, UniProt P50406); assay: Receptor binding screen, [^3H]LSD; conditions: 10 uM Concentration of Compound I-1-Z; read-out: Mean Value, percent inhibition of control specific binding: 5-HT6 (h)
T3 construct: expressed in transfected cells; host or cells: CHO cells
T3 sequence (P50406 whole entry): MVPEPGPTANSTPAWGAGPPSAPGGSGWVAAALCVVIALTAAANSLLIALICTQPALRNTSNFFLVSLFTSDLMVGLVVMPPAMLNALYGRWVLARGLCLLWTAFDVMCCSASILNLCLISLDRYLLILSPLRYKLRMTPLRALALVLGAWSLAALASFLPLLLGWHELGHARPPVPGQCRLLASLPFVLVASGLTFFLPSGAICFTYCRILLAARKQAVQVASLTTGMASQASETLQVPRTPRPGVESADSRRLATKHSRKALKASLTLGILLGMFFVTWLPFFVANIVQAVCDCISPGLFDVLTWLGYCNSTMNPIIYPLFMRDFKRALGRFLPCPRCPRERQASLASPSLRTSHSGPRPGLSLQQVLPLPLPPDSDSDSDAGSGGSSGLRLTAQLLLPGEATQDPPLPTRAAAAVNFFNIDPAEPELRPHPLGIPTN

[5] = biological target: T4, M1 (h) (Homo sapiens, UniProt P11229); assay: Receptor binding screen, [^3H]pirenzepine; conditions: 10 uM Concentration of Compound I-1-Z; read-out: Mean Value, percent inhibition of control specific binding: M1 (h)
T4 construct: expressed in transfected cells; host or cells: CHO cells
T4 sequence (P11229 whole entry): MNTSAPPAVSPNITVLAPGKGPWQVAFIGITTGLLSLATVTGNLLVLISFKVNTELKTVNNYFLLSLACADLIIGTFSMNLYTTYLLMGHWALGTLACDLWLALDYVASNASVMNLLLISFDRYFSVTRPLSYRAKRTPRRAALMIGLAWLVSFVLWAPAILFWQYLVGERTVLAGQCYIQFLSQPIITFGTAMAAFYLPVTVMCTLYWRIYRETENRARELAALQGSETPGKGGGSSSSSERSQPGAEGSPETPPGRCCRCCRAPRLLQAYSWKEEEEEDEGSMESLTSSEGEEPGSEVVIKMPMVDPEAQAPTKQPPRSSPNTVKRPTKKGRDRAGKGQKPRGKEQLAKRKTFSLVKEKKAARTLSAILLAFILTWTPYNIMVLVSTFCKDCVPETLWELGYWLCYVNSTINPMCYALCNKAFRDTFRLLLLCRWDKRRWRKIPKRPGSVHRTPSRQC
Experimental: as §1

[6] = tested on: sst (non-selective); assay: Receptor binding screen, [^125I]Tyr^11-somatostatin, AtT-20 cells; conditions: 10 uM Concentration of Compound I-1-Z
Experimental: as §1

[7] = tested on: PCP; assay: Receptor binding screen, [^3H]TCP; set-up: species or system rat; conditions: 10 uM Concentration of Compound I-1-Z
[8] = biological target: T5, μ (h) (MOP) (agonist site) (Homo sapiens, UniProt P35372); assay: Receptor binding screen, [^3H]DAMGO; conditions: 10 uM Concentration of Compound I-1-Z; read-out: Mean Value, percent inhibition of control specific binding: μ (h) (MOP) (agonist site)
T5 construct: expressed in transfected cells; host or cells: HEK-293 cells
T5 sequence (P35372 whole entry): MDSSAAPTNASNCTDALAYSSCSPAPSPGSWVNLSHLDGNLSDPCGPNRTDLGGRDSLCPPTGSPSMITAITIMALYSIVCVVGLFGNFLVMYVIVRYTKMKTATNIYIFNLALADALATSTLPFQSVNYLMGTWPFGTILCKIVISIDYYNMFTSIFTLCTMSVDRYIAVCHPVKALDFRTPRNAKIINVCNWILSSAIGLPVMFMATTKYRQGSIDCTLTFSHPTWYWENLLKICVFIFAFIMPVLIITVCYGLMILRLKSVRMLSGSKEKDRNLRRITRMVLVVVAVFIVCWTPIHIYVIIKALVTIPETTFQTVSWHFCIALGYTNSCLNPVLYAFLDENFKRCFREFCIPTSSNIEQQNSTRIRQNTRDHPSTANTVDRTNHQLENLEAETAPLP
Experimental: as §1

[9] = biological target: T6, human diamine oxidase (DAO) (Homo sapiens, UniProt P19801); assay: Inhibition of diamine oxidase, AMPLEX Red assay, putrescine substrate; format: biochemical; conditions: recombinant DAO expressed in CHO cells
T6 construct: made in house; host or cells: CHO cells (Flp-In, pcDNA5/FRT); serum-free conditioned medium used directly
T6 sequence (P19801 20-751): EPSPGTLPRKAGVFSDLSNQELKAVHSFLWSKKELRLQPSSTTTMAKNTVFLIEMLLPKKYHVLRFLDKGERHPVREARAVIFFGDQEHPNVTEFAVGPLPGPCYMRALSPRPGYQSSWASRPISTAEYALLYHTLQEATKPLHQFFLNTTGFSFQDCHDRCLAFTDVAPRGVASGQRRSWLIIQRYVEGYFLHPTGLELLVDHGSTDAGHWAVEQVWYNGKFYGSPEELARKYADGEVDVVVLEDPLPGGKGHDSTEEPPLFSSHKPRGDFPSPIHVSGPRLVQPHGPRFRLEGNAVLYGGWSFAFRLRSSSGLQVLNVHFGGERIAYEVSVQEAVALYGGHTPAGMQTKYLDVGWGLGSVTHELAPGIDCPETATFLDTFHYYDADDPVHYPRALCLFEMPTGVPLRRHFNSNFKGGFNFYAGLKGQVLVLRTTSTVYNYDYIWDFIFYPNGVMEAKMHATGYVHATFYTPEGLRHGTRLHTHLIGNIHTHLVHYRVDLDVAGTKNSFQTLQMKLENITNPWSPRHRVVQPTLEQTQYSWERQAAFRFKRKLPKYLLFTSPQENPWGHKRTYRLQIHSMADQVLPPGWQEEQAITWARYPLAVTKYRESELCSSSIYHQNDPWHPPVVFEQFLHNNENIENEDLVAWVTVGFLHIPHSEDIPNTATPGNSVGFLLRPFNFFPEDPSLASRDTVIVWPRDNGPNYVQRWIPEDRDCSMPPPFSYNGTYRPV
Experimental: Compounds of the invention can be tested for their inhibitory activity against diamine oxidase (DAO). Recombinant DAO was expressed in CHO cells using standard molecular biology methods as described herein. […] The serum containing media was removed and the cells were switched to CHO SFM serum free media for 48 hours. […] The media was collected and used directly as a source of diamine oxidase for enzyme analysis.

In the case of `COc1ccc(C/C(=C/F)CN)cc1.Cl` [Compound I-1-Z, (Z)-3-Fluoro-2-(4-methoxybenzyl)-allylamine hydrochloride], the inhibition at 10 µM [1] is reported as -10%, the “Mean Value, percent inhibition of control specific binding: α2 (non-selective)” value [2] is reported as 23% and the inhibition at 10 µM [3] is reported as -3%. The inhibition at 10 µM [4] was 1%, the inhibition at 10 µM [5] was 28% and the “Mean Value, percent inhibition of control specific binding: sst (non-selective)” value [6] was −4%. The “Mean Value, percent inhibition of control specific binding: PCP” value [7] was −12%, the inhibition at 10 µM [8] was 14% and the IC50 [9] was 92 µM.
